For one data set, the target named is T1, human PARG (Homo sapiens, UniProt Q86W56).
T1 construct: human PARG from amino acid 378 to 976; GST (glutathione-S-transferase, pGEX-4T1) (N); made in house; host or cells: E. coli BL21
Put plainly: PARG enzymatic assay. Type of data set: biochemical. The following applies: recombinant GST-fused human PARG (aa 378-976); 3H-labeled poly-(ADP-ribose) substrate; 23° C., 10 min. Here is the method:
The potency of PARG inhibition was determined in a PARG enzymatic assay. For each compound, various doses were used to inhibit the PARG reaction. A dose responsible curve was generated to determine the IC50 value and the concentration (in μM) required to achieve 50% inhibition of the reaction.
The PARG assay consisted of (a) preparation of 3H-labeled radioactive PARG as substrate, (b) purification of recombinant PARG, (c) incubation of the compound with the PARG reaction, (d) separation of the product by absorption to glass fiber filter and quantifying the radioactivity of ADP-ribose by scintillation counting.
3H-labeled poly-(ADP-ribose) was made by mixing labeled and unlabeled PAR. Labeled PAR was synthesized in a reaction of 50 mM Tris-HCl (pH 8.0), 4 mM MgCl2, 0.8 μg/mL activated DNA, 3 μM NAD, NEN 3H-NAD (0.1 mCi/mL), 0.8 μl/mL and 1.4 μl/mL Trevigen PARP. The reaction was incubated at room temperature for 60 min, then dialyzed to remove unincorporated 3H NAD using a MWCO 7000 dialysis cassette in 50 mM Phosphate buffer (pH 7.1) at 5° C. over night. Buffer was changed and dialysis continued for 2 h in the morning. The resulting 3H PAR gave 80,000 DPM/10 μL by scintillation counting.
Unlabeled PAR was synthesized in a reaction that consisted of 50 mM Tris-HCl (pH 8.0), 4 mM MgCl2, 0.8 μg/mL activated DNA, 150 μM NAD, and 1.9 μl/mL Trevigen PARP. The reaction was incubated at room temperature for 60 min, and dialyzed to remove unincorporated NAD in a MWCO 7000 cassette using 50 mM Phosphate buffer (pH 7.1) over night at […]. Buffer was changed and dialysis continued for 2 h in the morning. The OD260 of synthesized PAR is […].
The final PAR mix is made by combining 3H-PAR and PAR synthesized @ 150 μM NAD so that the OD260=0.2-0.3 and the DPM/10 μL=10,000 DPM (SA=0.45 Ci/mmole). EDTA was added to 1 mM.
A cDNA fragment encoding the carboxy terminal part of human PARG from amino acid 378 to 976 was amplified by polymerase chain reaction with human thymus cDNA (Clontech, Palo Alto, Calif.) as a template and a pair of primers with the sequences of 5′-[…]-3′ and 5′-[…]-3′. The primers contained the restriction enzyme sites EcoRI and XhoI. The PCR amplified PARG DNA fragment was digested with EcoRI and XhoI, and then ligated to the same sites in pGEX-4T1 plasmid (acquired from Pharmacia/Upjohn Co., Kalamazoo, Mich.) to create pGEX-PARG by using standard molecular biology procedure. The pGEX-PARG was transformed into E. coli strain BL21 for expressing the recombinant protein that has a glutathione-S-transferase at the amino terminus and fused in frame with PARG at the carboxy terminus. The recombinant protein was expressed and purified using glutathione-sephadex 4B beads according to the standard methodology.
A range of potential PARG inhibitors at final concentrations of 200.0 to 0.1 μM were tested, each point done in triplicate. The compounds were dissolved in DMSO resulting in a final DMSO concentration of 5.0%. The reaction was carried out in a volume of 0.1 mL. PARG enzyme was added to a concentration of 0.05 μL/mL to microtiter plates containing approximately 10 μM 3H-labeled poly-(ADP-ribose) in 50 mM Phosphate buffer (pH 7.1), 5 mM B-mercaptoethanol. The reaction was incubated at 23° C. for 10 min. and was stopped with the addition of TCA to a final concentration of 10%.
Enzyme activity was measured by the disappearance of substrate, [poly-(ADP-ribose) polymer], which was quantified as the loss of glass fiber filter adsorbed radioactivity. The reaction was harvested onto Millipore GFC96 well filter plates using the Packard Cell Harvestor. The plates were washed three times with 70% ethanol, air dried, and the radioactivity was measured by scintillation counting.

Each structure is given as a SMILES string.

T1 sequence (Q86W56 378-976): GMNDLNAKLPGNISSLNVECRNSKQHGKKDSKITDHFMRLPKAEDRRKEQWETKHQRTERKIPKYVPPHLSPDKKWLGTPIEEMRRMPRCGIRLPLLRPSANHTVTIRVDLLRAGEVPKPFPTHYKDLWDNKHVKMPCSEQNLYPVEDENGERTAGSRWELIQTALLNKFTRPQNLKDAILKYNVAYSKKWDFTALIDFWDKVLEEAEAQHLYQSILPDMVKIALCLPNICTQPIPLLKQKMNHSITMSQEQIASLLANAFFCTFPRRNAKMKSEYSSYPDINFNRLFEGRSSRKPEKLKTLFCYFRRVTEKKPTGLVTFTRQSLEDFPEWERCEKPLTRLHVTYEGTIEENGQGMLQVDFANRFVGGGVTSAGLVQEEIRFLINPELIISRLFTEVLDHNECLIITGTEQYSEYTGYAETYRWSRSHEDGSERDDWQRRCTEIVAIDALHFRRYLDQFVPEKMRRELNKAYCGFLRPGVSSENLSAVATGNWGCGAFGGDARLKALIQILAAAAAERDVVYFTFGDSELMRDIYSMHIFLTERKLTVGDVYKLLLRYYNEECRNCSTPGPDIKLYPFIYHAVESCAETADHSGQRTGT

Broadly, the IC50 is the midpoint of a concentration-inhibition curve. For orientation: melting point means the temperature of the solid-liquid transition. In turn, `O=C(NCCCc1ccccc1)c1ccc2c(c1)C(Cl)(Cl)c1cc(C(=O)NCCCc3ccccc3)ccc1-2` [Example 13, 2,7-Bis-[N-(3-phenyl-propyl)-carbamoyl]-9,9-dichloro-9H-fluorene] yielded a melting point of 165 to 167 °C. On human PARG, the IC50 came to 4.3 µM.

In the case of `O=C(NCCCc1ccccc1)c1ccc2c(c1)C(=O)c1cc(C(=O)NCCCc3ccccc3)ccc1-2` [Example 16], the melting point was in the range of 162 to 165 °C. Further, on human PARG, the concentration for half-maximal inhibition (IC50) was 1.7 µM.

Molecule `O=C(NCCc1ccccc1)c1ccc(C(=O)c2ccc(C(=O)NCCc3ccccc3)cc2)cc1` [Example 18, 4,4′-Bis(N-phenethyl)carbamoyl-benzophenone] showed a melting point of 244 to 248 °C. Further, the IC50 at human PARG was found to be 6 µM.

`O=C(c1cccc(C(=O)N2CCN(c3ccccc3)CC2)c1)c1cccc(C(=O)N2CCN(c3ccccc3)CC2)c1` [Example 22] yielded a melting point of 157 to 158 °C. Also, on human PARG, the half-inhibitory concentration (IC50) was determined as 17.1 µM.

Consider `O=C(CCCl)c1ccc2c(c1)Cc1cc(C(=O)CCCl)ccc1O2` [Example 37, 2,7-Bis-(3-chloro-propionyl)-xanthene], for which the melting point is 179 to 181 °C. Moreover, the IC50 on human PARG worked out at 17 µM.

As for `O=C(CCN1CCN(c2ccccc2)CC1)c1ccc2c(c1)Cc1cc(C(=O)CCN3CCN(c4ccccc4)CC3)ccc1O2` [Example 39, 2,7-Bis-[3-(4-phenyl-piperazin-1-yl)propionyl]-xanthene], the melting point was in the range of 206 to 208 °C. The IC50 at human PARG is 7.1 µM.

Take `O=C(CCN1CCN(c2cccc(C(F)(F)F)c2)CC1)c1ccc2c(c1)Cc1cc(C(=O)CCN3CCN(c4cccc(C(F)(F)F)c4)CC3)ccc1O2` [Example 40, 2,7-Bis-{3-[4-(3-trifluoromethyl-phenyl)-piperazin-1-yl]-propionyl}-xanthene]: the melting point was in the range of 155 to 157 °C. Moreover, at human PARG, the IC50 amounted to 10.6 µM.

`O=C(CCN1CCN(c2cccc(C(F)(F)F)c2)CC1)c1ccc2oc3ccc(C(=O)CCN4CCN(c5cccc(C(F)(F)F)c5)CC4)cc3c(=O)c2c1` [Example 41, 2,7-Bis-{3-[4-(3-trifluoromethyl-phenyl)-piperazin-1-yl]-propionyl}-xanthen-9-one] gave a melting point of 166 to 167 °C. For the same molecule, the 50% inhibitory concentration (IC50) at human PARG stood at 17.5 µM.

`O=C(CCN1CCN(c2ccccc2)CC1)c1ccc2oc3ccc(C(=O)CCN4CCN(c5ccccc5)CC4)cc3c(=O)c2c1` [Example 42, 2,7-Bis-[3-(4-phenyl-piperazin-1-yl)-propionyl]-xanthen-9-one] gave a melting point of 199 to 201 °C. Also, the IC50 at human PARG amounted to 100 µM.

Molecule `O=C(NCCc1ccccc1)c1ccc2c(c1)C(=O)c1cc(C(=O)NCCc3ccccc3)ccc1-2` [Example 56, 9-Oxo-9H-fluorene-2,7-bis-(phenethyl-amide)] yielded a melting point of 327 to 329 °C. Also, the IC50 at human PARG turned out to be 22 µM.

As for `O=C(NCc1ccc(Cl)c(Cl)c1)c1ccc2c(c1)C(=O)c1cc(C(=O)NCc3ccc(Cl)c(Cl)c3)ccc1-2` [Example 57, 9-Oxo-9H-fluorene-2,7-bis-(3,4-dichloro-benzylamide)], the melting point lay within 265 to 267 °C. In addition, the IC50 at human PARG came out at 15 µM.

Regarding `O=C(NCc1ccc(O)c(O)c1)c1ccc2c(c1)C(=O)c1cc(C(=O)NCc3ccc(O)c(O)c3)ccc1-2` [Example 58, 9-Oxo-9H-fluorene-2,7-bis-(3,4-dihydroxy-benzylamide)], the melting point was 160 to 163 °C. For the same molecule, on human PARG, the IC50 was 10 µM.

`O=C(CCN1CCN(c2ccc(F)cc2)CC1)c1ccc2c(c1)Cc1cc(C(=O)CCN3CCN(c4ccc(F)cc4)CC3)ccc1O2` [Example 59] gave a melting point of 207 to 209 °C. Further, at human PARG, the IC50 came to 2.9 µM.

On to `O=C(CCN1CCN(c2cccc(Cl)c2)CC1)c1ccc2c(c1)Cc1cc(C(=O)CCN3CCN(c4cccc(Cl)c4)CC3)ccc1O2` [Example 60], for which the melting point was in the range of 182 to 185 °C. Also, the half-inhibitory concentration (IC50) on human PARG was found to be 1.1 µM.

These data come from US6635786B2, “Symmetrically disubstituted aromatic compounds and pharmaceutical compositions for inhibiting poly (ADP-ribose) glycohydrolase, and methods for their use” (Guilford Pharmaceuticals, Inc., priority 2001, dated 2003).
